Test results from patent US10260039B2, “Microgels and microtissues for use in tissue engineering” (Massachusetts Institute of Technology, priority 2011, dated 2019).

Assays:
encapsulated tumor cells = assay: 3D proliferation of encapsulated tumor cells in microtissues (large-particle flow analyzer); format: cell-based
From the text: FIG. 16. Microtissue proliferation modulated by (a) incorporated extracellular matrix molecules, or (b) culture in soluble growth factors.
FIG. 17. Differences in tumor cell responses to small molecules in 2D vs. 3D culture. (a) Comparison of proliferation rates on 2D-microplate and 3D-microtissue formats relative to untreated controls. (b) Growth curve over time of tumor cells in 2D measured by microplate fluorescence, and (c) Growth curve over time of tumor cells in 3D measured by gel dissolution and DNA quantitation.
The in vitro 3D tumor model platform combines the split-injection encapsulation chip described in detail above with a large-particle flow analyzer and sorter (COPAS Biosort by Union Biometrica). Cells are first encapsulated within microtissues (˜5000/min) that can contain tumor cells, stromal cells, and various entrapped ECM. These microtissues are then further enriched using the flow sorter that measures the fluorescence intensity each microtissue, correlating with the density of zs-green tumor cells in each microtissue. (FIG. 15a), and can sort the microtissues (˜25 selected/min) into low, medium, and high homotypic cell density bins (FIG. 15b). […] Selected populations of microtissues are then exposed to stimuli in culture such as growth factors and inhibitors, and their proliferation over days is detected on a population level (FIG. 15b).

[1] = test system: 3D engineered liver tissues; assay: hepatic function of 3D engineered liver tissues (albumin secretion); format: cell-based, human
From the text: FIG. 10. A) Albumin secretion as a measure of hepatic phenotype, elevated in the presence of fibroblasts and RGDS peptide. B) Luminex bead measurements of human drug metabolism enzyme genes, showing upregulation of the genes in 3D as opposed to 2D, in various phases of drug metabolism.
More recently, it has been possible to extend the function of 3D engineered liver tissues even further, by addition of a micropatterning step pre-encapsulation (FIG. 11).

TGF-β
slowing of 3D proliferation of encapsulated tumor cells (encapsulated tumor cells; exogenous growth factor in culture, 3D microtissues (FIG. 16)): ~80%

RGDS: adhesive peptide (SEQ ID NO: 1), acrylate-PEG-RGDS incorporated in hydrogel; ligates α5β1 integrin (not fully specified; acrylate-PEG conjugate in hydrogel)
hepatic functions ([1]; 3D culture, ligation of α5β1 integrin via RGDS (FIG. 10A)): further improved hepatic functions | albumin secretion as a measure of hepatic phenotype ([1]; in the presence of fibroblasts and RGDS peptide (FIG. 10A)): elevated

fibronectin
3D proliferation (growth) of encapsulated tumor cells (encapsulated tumor cells; extracellular matrix protein incorporated in microtissues (FIG. 16)): promoted growth
